Experimental data: patent US20230406803A1, “TROPOLONE DERIVATIVES AND TAUTOMERS THEREOF FOR IRON REGULATION IN ANIMALS” (Kinesid Therapeutics, Inc, priority 2020, published 2023)

Legend:
[1] = test system: DMT1-deficient Caco-2 cells; test: shDMT1-Caco2 55Fe transport assay; type: cell-based; conditions: 3 μM, 4 h; fold change over DMSO normalized to hinokitiol at 3 μM (FC hino=1)
Description: Assay 2: shDMT1-Caco2 ^55Fe Transport Assay to Assess Ligand Ability in Transporting Fe (III)
Cells: DMT1-deficient Caco-2 cells (alias: “shDMT1,” or “4A” cells) were from Grillo et al. Science, 2017, and were cryopreserved in liquid nitrogen prior to use.
Reagents and supplies: ^55FeCl3 was obtained from PerkinElmer (Boston, MA). Iron(III) chloride (FeCl3) hexahydrate was obtained from Sigma. Dulbecco's Modified Eagle Medium (DMEM), fetal bovine serum (FBS), L-glutamine, MEM nonessential amino acids, penicillin-streptomycin, G418, formic acid, methanol, high-purity water, ammonium formate, dimethyl sulfoxide (DMSO) were purchased from Fisher Scientific. Propranolol, atenolol and carbutamide were obtained from Sigma-Aldrich Chemical Company (St Louis, MO). Scintillation cocktail was obtained from Research Product International Co. (Mount Prospect, IL). Stericup filter system (PES membrane, 0.22 um pore size) was purchased from Fisher Scientific. Corning item #3378 24-well transwell insert plates.
Test articles: known compounds hinokitiol and deferiprone were purchased from Sigma. They are tested side by side with the small molecule ligands disclosed in this application. DMSO stocks (10 mM, which is 1,000× of the 10 μM dose level) of hinokitiol or test articles were prepared. A stock solution of 25 mM deferiprone in DMSO was prepared. The DMSO stock solutions were stored at −20° C. or below when not in use.
The growth medium was prepared according to the following table
Apical media (serum free DMEM, 10 mM MES, pH 6.5) was prepared. Apical master mix media was prepared fresh with the addition of 200 nM ^55Fe before each experiment. For the negative control propranolol and atenolol wells, 200 nM of non-radioactive iron was used.
The basolateral media was serum-free DMEM, 10 mM HEPES, 2% bovine serum albumin (BSA), pH 7.4.
For each experiment, cells were seeded into the 24-well transwell plates (0.5 mL of 50,000 cells/mL) with growth media. The basolateral companion plate was loaded with 1 mL of growth media. After 12-24 hr, both the apical and basolateral chamber were replaced with growth media. The apical media was changed 3× per week for 21-28 days, including a media change exactly 48 hr before the assay date.
On the assay day, the TEER values were measured and the average TEER value was obtained. Individual wells with TEER value >35% lower than the average of all wells were excluded. For the qualified wells, the apical layer (twice) and basolaterial (once) chambers were washed with PBS. The basolateral companion plate was then filled with 1 mL of basolateral media. Via addition down the side-wall of the apical well, 300 μL per well of the apical assay master mix, with the indicated dose level of test article, was added. Each dose was tested in triplicate. The plates were incubated (5% CO2 and 90% humidity at 37° C.) for the indicated timepoints. At each indicated timepoint, the basolateral supernatant was gently mixed via pipetting, and 200 μL of the basolateral supernatant was transferred to scintillation vials. To each scintillation counting vial, 5 mL of scintillation cocktail fluid was added. For each scintillation vial, the radioactivity (CPM) was determined with liquid scintillation counter LS6500. The counting time per vial was 5 min.
All raw CPM values are divided by the average value of blank DMSO solution to give a fold of change above the DMSO value. The mean and standard deviation of each compound at each concentration level and at each time point measured was calculated to give the fold change (fc) value. For rank order compounds, the fc value of a ligand at 4 h time point is further divided by the fold change (fc) value of hinokitiol (a positive control compound) at an equimolar concentration to arrive at the FC (normalized fold of change) value. Data reported in Tables 1 and 2 is 4 hr time point FC=fc-ligand @ 3 uM/fc-hino @ 3 μM, and FC hino=1.

[2] = Human liver microsomal stability assay; type: in vitro ADME; conditions: human liver microsomes
Description: Further examples of useful assays include metabolic stability assays, such as but not limited to e.g., liver microsomal clearance assays which provide measurement such as, but not limited to e.g., liver microsomal clearance half-life (t1/2), liver microsomal intrinsic clearance (CLint), and the like. Such measurements are useful in assessing various characteristics of a subject compound, such as e.g., the availability of an intact compound to provide a pharmacological effect. A compound having a longer microsomal clearance half-life (t1/2), e.g., than a reference compound, will provide better exposure of the intact compound and greater availability to produce the relevant pharmacological effect. A compound having a less microsomal clearance, e.g., as measured by liver microsomal intrinsic clearance (CLint), will similarly result in greater exposure of the intact compound available for an increase in the relevant pharmacological effect, e.g., as compared to that of a reference compound with a higher liver microsomal intrinsic clearance (CLint). Other useful assays include in vitro hepatocyte metabolic stability assays.
(§1) Such assessments included human and mouse liver microsomal stability assays as well as 6-hour mouse PK studies.

Mouse 6-hour PK study = conditions: in vivo, mouse 6-hour PK
Description: Useful such assays include, but are not limited to e.g., those measurements made in PK studies, such as rodent and non-human primate PK studies, including e.g., mouse (such as mouse 6-hour PK studies), rat PK studies, cynomolgus or rhesus PK studies, or the like. Useful measurements obtained in such PK studies include but are not limited to e.g., maximum concentration (Cmax) reflecting the “peak” of a drug observed after its administration that can reflect not only the rate but also the extent of absorption, area under the curve (AUC) representing the area under the plot of tissue (e.g., plasma) concentration against time after drug administration which is of particular use in estimating bioavailability of drugs and drug total clearance, half-life (t1/2) or the period of time required for the concentration or amount of drug to be reduced to exactly one-half of a given concentration or amount that indicates the persistence of the drug in its volume of distribution, and the like.
as §1

CC(C)c1cccc(=O)c(O)c1 [hinokitiol, reference compound]
Caco2 shDMT1 transport FC @ 3 μM, 4 h [1]: 1
microsomal CLint ([2]; read-out: Human CLint): 120 µL/min/mg
half-life ([2]; read-out: Human t1/2): 11.6 min
AUC(0-t) (Mouse 6-hour PK study; read-out: AUClast 0-6 hr): 584 ng·h/mL
Cmax (Mouse 6-hour PK study; read-out: Cmax): 956 ng/mL
half-life (Mouse 6-hour PK study; read-out: t1/2 (converted)): 66.6 min
